Data reported in US20050261330A1, “Derivatives of 2,2,4-trisubstituted tetrahydrofuran an antifungal agents” (priority 2002, published 2005).
Converted amounts (≈) assume the structure as drawn.

Experiments:
[1] = test system: Candida albicans ATCC 36082; assay: MIC, NCCLS M27A broth dilution; type: cell-based; details: RPMI 1640, MOPS pH 7
Candida albicans Y-01-19 = assay: MIC, NCCLS M27A broth dilution; type: cell-based; details: RPMI 1640, MOPS pH 7
Candida glabrata 90030 = assay: MIC, NCCLS M27A broth dilution; type: cell-based; details: RPMI 1640, MOPS pH 7
[2] = test system: Candida brusei ATCC 6258 (QC); assay: MIC, NCCLS M27A broth dilution; type: cell-based; details: RPMI 1640, MOPS pH 7
[3] = test system: Cryptococcus neoformans M 106; assay: MIC, NCCLS M27A broth dilution; type: cell-based; details: RPMI 1640, MOPS pH 7
Candida krusel 766.1 = assay: MIC, NCCLS M27A broth dilution; type: cell-based; details: RPMI 1640, MOPS pH 7
[4] = test system: Cryptococcus neoformans I; assay: MIC, NCCLS M27A broth dilution; type: cell-based; details: RPMI 1640, MOPS pH 7
[5] = test system: Candida parapsilosis ATCC 22019 (QC); assay: MIC, NCCLS M27A broth dilution; type: cell-based; details: RPMI 1640, MOPS pH 7
[6] = test system: Candida tropicalis ATCC 750; assay: MIC, NCCLS M27A broth dilution; type: cell-based; details: RPMI 1640, MOPS pH 7
[7] = test system: Paecilomyces variotti ATCC 22319 (QC); assay: MIC, NCCLS broth dilution; type: cell-based; details: RPMI 1640, MOPS pH 7
Histoplasma capsulatum = type: cell-based; details: RPMI 1640, MOPS pH 7
[8] = test system: Aspergillus fumigatus 1008; assay: MIC, NCCLS M38P broth dilution; type: cell-based; details: RPMI 1640, MOPS pH 7
[9] = test system: Aspergillus fumigatus Si-I; assay: MIC, NCCLS M38P broth dilution; type: cell-based; details: RPMI 1640, MOPS pH 7
Candida albicans 1122 = assay: MIC, NCCLS M27A broth dilution; type: cell-based; details: RPMI 1640, MOPS pH 7
Candida albicans 1162 = assay: MIC, NCCLS M27A broth dilution; type: cell-based; details: RPMI 1640, MOPS pH 7
ergosterol P450DM [10] = details: A. fumigatus lysates; relative to fluconazole; cited from earlier work
ergosterol P450DM [11] = molecular target: T1, ergosterol P450DM (Candida albicans, UniProt P10613); details: C. albicans lysates; relative to fluconazole; cited from earlier work
T1 construct: host or cells: C. albicans lysates
T1 sequence (P10613 whole entry): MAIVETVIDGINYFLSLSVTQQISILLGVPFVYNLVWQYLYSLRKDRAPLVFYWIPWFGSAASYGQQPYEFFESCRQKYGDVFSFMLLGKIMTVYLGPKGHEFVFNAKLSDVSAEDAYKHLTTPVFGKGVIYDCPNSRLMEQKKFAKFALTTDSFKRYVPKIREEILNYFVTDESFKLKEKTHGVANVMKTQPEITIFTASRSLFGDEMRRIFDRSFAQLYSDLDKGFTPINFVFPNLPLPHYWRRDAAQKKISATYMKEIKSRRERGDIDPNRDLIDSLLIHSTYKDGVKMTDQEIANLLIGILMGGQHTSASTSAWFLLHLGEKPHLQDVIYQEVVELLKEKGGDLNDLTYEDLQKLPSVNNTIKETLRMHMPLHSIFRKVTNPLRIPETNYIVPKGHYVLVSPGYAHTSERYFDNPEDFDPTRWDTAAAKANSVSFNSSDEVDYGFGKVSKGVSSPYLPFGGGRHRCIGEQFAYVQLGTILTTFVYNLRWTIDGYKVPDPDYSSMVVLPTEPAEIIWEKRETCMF

Compound | MIC [1] | MIC (Candida albicans Y-01-19) | MIC (Candida glabrata 90030) | MIC [2] | MIC [3] | MIC (Candida krusel 766.1) | MIC [4] | MIC [5] | MIC [6] | MIC [7] | MIC (Histoplasma capsulatum) | MIC [8] | MIC [9] | MIC (Candida albicans 1122) | MIC (Candida albicans 1162) | greater inhibition of ergosterol P450DM compared to fluconazole (ergosterol P450DM [10]) | greater inhibition of ergosterol P450DM compared to fluconazole (ergosterol P450DM [11])
2-[(5R,3S)-5-(2,4-Difluorophenyl)-tetrahydro-5-(1H-1,2,4-triazol-1yl-methyl)-furan-3-yl-methyl]-4-[4-(phenyl)-1,2,4-triazol-1-yl]-2,4-dihydro-3(2H,4H)-1,2,4-triazolone [Compound No. 2] | 0.125 µg/mL | 16 µg/mL | 16 µg/mL | 8 µg/mL | 8 µg/mL | 16 µg/mL | 8 µg/mL | 8 µg/mL | 0.5 µg/mL | 8 µg/mL | 16 µg/mL | 16 µg/mL | 16 µg/mL | – | – | – | –
2-[(5R,3S)-5-(2,4-Difluorophenyl)-tetrahydro-5-(1H-1,2,4-triazol-1yl-methyl)-furan-3-yl-methyl]-4-{4-[4-(phenyl)-1-piperazinyl]-chlorophenyl}-2,4-dihydro-3(2H,4H-1,2,4-triazolone [Compound No. 5] | 0.03 µg/mL | 0.125 µg/mL | 1 µg/mL | 0.25 µg/mL | 0.125 µg/mL | 1 µg/mL | < 0.03 µg/mL | 0.03 µg/mL | 0.03 µg/mL | 1 µg/mL | 0.25 µg/mL | 2 µg/mL | 1 µg/mL | – | – | – | –
O=c1n(-c2ccc(O)cc2)cnn1C[C@H]1CO[C@@](Cn2cncn2)(c2ccc(F)cc2F)C1 [Compound No. 3] | 16 µg/mL (≈ 35.2 µM) | 8 µg/mL (≈ 17.6 µM) | 16 µg/mL (≈ 35.2 µM) | 16 µg/mL (≈ 35.2 µM) | 8 µg/mL (≈ 17.6 µM) | 16 µg/mL (≈ 35.2 µM) | 8 µg/mL (≈ 17.6 µM) | 16 µg/mL (≈ 35.2 µM) | 16 µg/mL (≈ 35.2 µM) | > 16 µg/mL | 16 µg/mL (≈ 35.2 µM) | > 16 µg/mL | > 16 µg/mL | – | – | – | –
O=c1n(-c2ccc(Cn3cncn3)cc2)cnn1C[C@@H]1CO[C@@](Cn2cncn2)(c2ccc(F)cc2F)C1 [Compound No. 4] | 2 µg/mL (≈ 3.85 µM) | 16 µg/mL (≈ 30.8 µM) | 16 µg/mL (≈ 30.8 µM) | 16 µg/mL (≈ 30.8 µM) | 8 µg/mL (≈ 15.4 µM) | 16 µg/mL (≈ 30.8 µM) | 8 µg/mL (≈ 15.4 µM) | 8 µg/mL (≈ 15.4 µM) | 16 µg/mL (≈ 30.8 µM) | 16 µg/mL (≈ 30.8 µM) | 16 µg/mL (≈ 30.8 µM) | 16 µg/mL (≈ 30.8 µM) | 16 µg/mL (≈ 30.8 µM) | – | – | – | –
O=c1n(-c2ccc(OCc3ccccc3)cc2)cnn1C[C@H]1CO[C@@](Cn2cncn2)(c2ccc(F)cc2F)C1 [Compound No. 6, 2-[(5R,3S)-5-(2,4-Difluorophenyl)-tetrahydro-5-(1H-1,2,4-triazol-1yl-methyl)-furan-3-yl-methyl]-4-[4-(benzyloxy)-phenyl]-2,4-dihydro-3(2H,4H)-1,2,4-triazolone] | 0.03 µg/mL (≈ 0.0551 µM) | 1 µg/mL (≈ 1.84 µM) | 2 µg/mL (≈ 3.67 µM) | 4 µg/mL (≈ 7.35 µM) | 2 µg/mL (≈ 3.67 µM) | 8 µg/mL (≈ 14.7 µM) | 2 µg/mL (≈ 3.67 µM) | 0.25 µg/mL (≈ 0.459 µM) | 0.06 µg/mL (≈ 0.11 µM) | 16 µg/mL (≈ 29.4 µM) | 0.5 µg/mL (≈ 0.918 µM) | 16 µg/mL (≈ 29.4 µM) | 16 µg/mL (≈ 29.4 µM) | – | – | – | –
O=c1n(-c2ccc(N3CCN(c4ccc(OCc5ccccc5)cc4)CC3)cc2)cnn1C[C@H]1CO[C@@](Cn2cncn2)(c2ccc(F)cc2F)C1 [Compound No. 7, 2-[(5R,3S)-5-(2,4-Difluorophenyl)-tetrahydro-5-(1H-1,2,4-triazol-1yl-methyl)-furan-3-yl-methyl]-4-{4-[4-[4-(benzyloxy)-phenyl]-1-piperazinyl]-phenyl}-2,4-dihydro-3(2H,4H)-1,2,4-triazolone] | < 0.03 µg/mL | 16 µg/mL (≈ 22.7 µM) | 16 µg/mL (≈ 22.7 µM) | 8 µg/mL (≈ 11.4 µM) | 0.125 µg/mL (≈ 0.177 µM) | 16 µg/mL (≈ 22.7 µM) | 0.06 µg/mL (≈ 0.0851 µM) | 0.125 µg/mL (≈ 0.177 µM) | 0.125 µg/mL (≈ 0.177 µM) | 1 µg/mL (≈ 1.42 µM) | 16 µg/mL (≈ 22.7 µM) | 16 µg/mL (≈ 22.7 µM) | 16 µg/mL (≈ 22.7 µM) | – | – | – | –
O=c1n(-c2ccc(-n3cnnn3)cc2)cnn1C[C@@H]1CO[C@@](Cn2cncn2)(c2ccc(F)cc2F)C1 [Compound No. 9, 2-[(5R,3R)-5-(2,4-Difluorophenyl)-tetrahydro-5-(1H-1,2,4-triazol-1yl-methyl)-furan-3-yl-methyl]-4-[4-(1,2,3,4-tetrazol-1-yl)-phenyl]-2,4-dihydro-3(2H,4H)-1,2,4-triazolone] | – | 64 µg/mL (≈ 126 µM) | 64 µg/mL (≈ 126 µM) | 64 µg/mL (≈ 126 µM) | 8 µg/mL (≈ 15.8 µM) | 64 µg/mL (≈ 126 µM) | 32 µg/mL (≈ 63.2 µM) | 16 µg/mL (≈ 31.6 µM) | 8 µg/mL (≈ 15.8 µM) | 32 µg/mL (≈ 63.2 µM) | 64 µg/mL (≈ 126 µM) | > 128 µg/mL | ≧128 g/ml | 4 µg/mL (≈ 7.9 µM) | 64 µg/mL (≈ 126 µM) | – | –
C[C@@H](c1ncncc1F)[C@](O)(Cn1cncn1)c1ccc(F)cc1F [Voriconazole] | – | – | – | – | – | – | – | – | – | – | – | – | – | – | – | 160 fold | 1.6 fold
